According to PubChem BioAssay (NCI):
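Each compound was tested at five concentrations against cells in 96-well plates for 48 hours. Here, GI50 denotes the concentration required for 50% inhibition of growth. TGI marks complete inhibition of growth.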

Legend:
Experiment in all cases: growth of human tumour cells (NCI), 48 h
EKVX NSCLC = tested on: EKVX NSCLC
HCT-15 colon = tested on: HCT-15 colon
K-562 leukemia = tested on: K-562 leukemia
MALME-3M melanoma = tested on: MALME-3M melanoma
MCF7 breast = tested on: MCF7 breast
SF-295 CNS = tested on: SF-295 CNS
SK-MEL-5 melanoma = tested on: SK-MEL-5 melanoma
SNB-75 CNS = tested on: SNB-75 CNS
BT-549 breast = tested on: BT-549 breast
T-47D breast = tested on: T-47D breast

Row | Structure (SMILES) | TGI (EKVX NSCLC) | TGI (HCT-15 colon) | TGI (K-562 leukemia) | TGI (MALME-3M melanoma) | TGI (MCF7 breast) | TGI (SF-295 CNS) | TGI (SK-MEL-5 melanoma) | TGI (SNB-75 CNS) | TGI (BT-549 breast) | TGI (T-47D breast) | GI50 (MALME-3M melanoma) | GI50 (MCF7 breast) | GI50 (SK-MEL-5 melanoma) | GI50 (SNB-75 CNS)
1 | CN(C)CCNC(=O)c1cccc2c(NC(CCCN=C(N)N)C(=O)O)c3ccccc3nc12 (stereo not drawn) | 30.1 µM | > 100 µM | > 100 µM | 23.4 µM | > 100 µM | 41.9 µM | > 100 µM | 34.5 µM |  |  |  |  |  | 
2 | CC(C)C(C=O)C(O)(C(F)(F)F)C(F)(F)F (stereo not drawn) | > 100 µM | > 100 µM | > 100 µM | > 100 µM | > 100 µM | > 100 µM | > 100 µM | > 100 µM | > 100 µM | > 100 µM |  |  |  | 
3 | O=C(NC1CCCCC1)N1CCNC1=S | > 100 µM | > 100 µM | > 100 µM | > 100 µM |  | > 100 µM | > 100 µM | > 100 µM | > 100 µM | > 100 µM |  |  |  | 
4 | OC[C@@H](O)[C@H](O)[C@H](O)[C@@H](O)C1SCCCS1 | > 100 µM | > 100 µM |  |  | > 100 µM | > 100 µM | > 100 µM | > 100 µM | > 100 µM | > 100 µM |  |  |  | 
5 | CN1CN(c2ccccc2)C2(CCN(C(=O)OC(C)(C)C)CC2)C1=O | > 100 µM | > 100 µM | > 100 µM | > 100 µM | > 100 µM | > 100 µM | > 100 µM | > 100 µM | > 100 µM | > 100 µM |  |  |  | 
6 | COc1ccc2cc(CNCCOCCOCCNCc3ccc4cc(OC)ccc4c3)ccc2c1 | 3.21 µM | 1.63 µM | 1.92 µM | 2.83 µM | 2.5 µM | 2.59 µM | 1.81 µM | 3.03 µM | 3.59 µM | 3.22 µM |  |  |  | 
7 | COc1ccc2nc3c(nc2c1)C(C)(C)C=C3c1ccc(Br)cc1 | > 100 µM | > 100 µM |  | > 100 µM | > 100 µM |  | > 100 µM | > 100 µM | > 100 µM | > 100 µM |  |  |  | 
8 | O=C(O)C(=Cc1ccc(-c2ccc([N+](=O)[O-])cc2)o1)C(=O)O | > 100 µM | > 100 µM | > 100 µM | > 100 µM | > 100 µM | > 100 µM | > 100 µM | > 100 µM | > 100 µM |  |  |  |  | 
9 | Cn1cnc([N+](=O)[O-])c1Sc1nnc(-c2ccc(Cl)cc2)n1C | 20.4 µM |  | 34.2 µM | 23 µM |  | > 100 µM |  | 46.7 µM |  |  |  |  |  | 
10 | CC(=O)Nc1ccc(S(=O)(=O)Nc2cnc3ccccc3n2)cc1 | > 100 µM | > 100 µM | > 100 µM | > 100 µM |  | > 100 µM | > 100 µM | > 100 µM |  |  |  |  |  | 
11 | Nc1ccc(Oc2ccc(C34CC5CC(C3)CC(c3ccc(Oc6ccc(N)c(O)c6)cc3)(C5)C4)cc2)cc1O | 3.63 µM | 4.37 µM | > 100 µM | 6.24 µM | 8.95 µM | 5.1 µM | 4.37 µM |  | 3.37 µM | 4.07 µM |  |  |  | 
12 | CC(=O)O[C@H]1C(=O)[C@@]2(C)C(C(OC(=O)c3ccccc3)[C@]3(O)CC(OC(=O)C(O)C(NC(=O)c4cccc(Cl)c4)c4ccccc4)C(C)=C1C3(C)C)[C@]1(OC(C)=O)CO[C@@H]1C[C@@H]2O (stereo partly drawn) | > 10 µM | > 10 µM | > 10 µM | > 10 µM | > 10 µM | > 10 µM | 6.22 µM | 8.9 µM | > 10 µM |  |  |  |  | 
13 | COC(=O)C1=C(C(=O)OC)SC2(S1)C(C(=O)OC)=C(C(=O)OC)Sc1c2ssc1=O | 6.16 µM | 1.57 µM | 2.86 µM | 1.55 µM | 4.65 µM | 27.6 µM | 2.59 µM | 11.4 µM | 2.89 µM |  |  |  |  | 
14 | Cc1ccc2c(=O)cc(-c3ccccc3)[nH]c2n1 | > 100 µM | 6.3 µM | 6.57 µM | > 100 µM | > 55 µM |  | 18.7 µM | > 100 µM | > 100 µM | > 100 µM |  |  |  | 
15 | COc1ccc(CNCCN2C(=O)c3ccc4c5c(ccc(c35)C2=O)C(=O)N(CCNCc2ccc(OC)c(OC)c2OC)C4=O)c(OC)c1OC |  |  |  | 0.297 µM | 1.15 µM |  | 1.09 µM | 2.09 µM |  |  | 0.112 µM | 0.222 µM | 0.48 µM | 0.903 µM
16 | COc1ccccc1-c1nc[nH]c1-c1ccccc1OC | > 100 µM | > 100 µM | 65 µM | 52.9 µM | > 100 µM | 97.9 µM |  | 60.7 µM | > 100 µM | > 100 µM |  |  |  | 
17 | CC(NC(=O)C(NC(=O)C(NC(=O)C(F)(F)F)C(C)C)C(C)C)C(=O)Oc1c(Cl)c(Cl)c(Cl)c(Cl)c1Cl (stereo not drawn) | > 100 µM | > 100 µM | > 100 µM | > 100 µM | > 100 µM |  | > 100 µM | > 100 µM | > 100 µM | > 100 µM |  |  |  | 

Row | Structure (SMILES) | TGI (EKVX NSCLC) | TGI (HCT-15 colon) | TGI (K-562 leukemia) | TGI (MALME-3M melanoma) | TGI (MCF7 breast) | TGI (SF-295 CNS) | TGI (SK-MEL-5 melanoma) | TGI (SNB-75 CNS) | TGI (BT-549 breast) | TGI (T-47D breast) | GI50 (MALME-3M melanoma) | GI50 (MCF7 breast) | GI50 (SK-MEL-5 melanoma) | GI50 (SNB-75 CNS)
18 | O=C1C(Nc2ccc(S(=O)(=O)Nc3cnc4ccccc4n3)cc2)=CC(=Nc2ccc(S(=O)(=O)Nc3cnc4ccccc4n3)cc2)c2ccccc21 | 36.1 µM | 33 µM | > 74.9 µM | 33.8 µM | 42.4 µM | 30.3 µM | 31.5 µM | 28.5 µM |  |  |  |  |  | 
19 | COc1cc2ccnc3c2c(c1OC)N(C)C=C3 | 61.6 µM | > 100 µM | 65.5 µM |  | 44.6 µM | 78.3 µM |  | > 100 µM | 87.8 µM | > 100 µM |  |  |  | 
20 | COc1ccc(C2=Nn3c(nc4sc5c(c4c3=O)CCCC5)SC2)cc1 | > 100 µM | > 100 µM | > 100 µM | > 100 µM | > 100 µM | > 100 µM | > 100 µM |  | > 100 µM | > 100 µM |  |  |  | 
21 | Cn1c(=Nc2ccccc2[N+](=O)[O-])sc2ccccc21 | > 100 µM | > 100 µM | > 100 µM | > 100 µM |  | > 100 µM | > 100 µM | 89 µM |  | > 100 µM |  |  |  | 
22 | Nc1nc(Cl)cc(OCC2(CO)CCCCC2)n1 | > 100 µM | > 100 µM |  | > 100 µM | > 100 µM | > 100 µM | > 100 µM | > 100 µM |  |  |  |  |  | 
23 | CCOC(=O)C(NS(=O)(=O)c1ccccc1)(C(F)(F)F)P(=O)(OCC(C)C)OCC(C)C (stereo not drawn) | > 100 µM | > 100 µM | > 100 µM | > 100 µM | > 100 µM | > 100 µM | > 100 µM | > 100 µM |  | > 100 µM |  |  |  | 
24 | CCc1cc2c(cc1O)CC[C@@H]1[C@@H]2CC[C@]2(C)[C@@H](O)CC[C@@H]12 | 25.5 µM | 29.2 µM | 14.5 µM | 12.5 µM | 10.4 µM | 12.1 µM | 20.4 µM | 7.59 µM |  | 32.9 µM |  |  |  | 
25 | CCN1CC2(CO)CCC(OC)C34C5CC6C(OC)CC(O)(C5C6OC)C(O)(C(OC)C23)C14 (stereo not drawn) | > 65 µM | > 375 µM | > 375 µM | > 375 µM | > 375 µM | > 375 µM | > 211 µM | > 375 µM |  |  |  |  |  | 
26 | O=C(O)Cn1cnc2c(=O)[nH]c(Nc3ccccc3)nc21 | > 100 µM | > 100 µM |  | > 100 µM | > 100 µM | > 100 µM | > 100 µM | > 100 µM | > 100 µM | > 100 µM |  |  |  | 
27 | O=C(N/N=C/c1ccc(O)cc1)NNCCO |  | > 100 µM | > 100 µM | > 100 µM | > 100 µM | > 100 µM | > 100 µM | > 100 µM | > 100 µM | > 100 µM |  |  |  | 
28 | C=C1C(=O)OC2C=C(C)CC3C=C(CCC=C(C)CCC12)C(=O)O3 (stereo not drawn) | 118 µM | 131 µM | 228 µM | > 81.4 µM | 106 µM | 200 µM | 138 µM | 196 µM |  |  |  |  |  | 
29 | COC(=O)[C@@]1(Cc2ccc(OC(C)=O)cc2)Cc2cc3ccccc3n2N1 | > 100 µM | > 100 µM |  | > 100 µM | > 100 µM | > 100 µM | 37.1 µM |  | > 100 µM | > 100 µM |  |  |  | 
30 | CN(CCCNC(=O)c1[nH]nc2c1ccc1ccccc12)CCCNC(=O)c1[nH]nc2c1ccc1ccccc12 | 38.8 µM | 31.2 µM |  | 22.4 µM | 28.7 µM | 32.5 µM | 17 µM | 31.3 µM | 29.4 µM | 36.1 µM |  |  |  | 
31 | C[C@]12CC[C@@H]3c4cc(C=O)c(OCc5ccccc5)cc4CC[C@H]3[C@@H]1CCC2OCc1ccccc1 (stereo partly drawn) | > 100 µM | > 100 µM | > 100 µM |  | > 100 µM | > 100 µM | > 100 µM | > 100 µM | > 100 µM | > 100 µM |  |  |  | 
32 | COC(=O)c1cc(NC(=O)Cn2c3ccccc3c3ccccc32)cn1C | > 100 µM | > 100 µM | > 100 µM | > 100 µM | > 100 µM | 86.3 µM | > 100 µM |  | 71.3 µM | > 100 µM |  |  |  | 
33 | CSCCC(NOC(=O)Cc1ccccc1)P(=O)(O)c1ccccc1 (stereo not drawn) |  | > 100 µM | > 100 µM |  | > 100 µM | > 100 µM | > 100 µM | > 100 µM |  | > 100 µM |  |  |  | 
34 | CCN(CC)CCNC(=O)C1COc2ccc(-c3cc(=O)c4ccccc4o3)cc2O1 (stereo not drawn) | 61 µM | 31.8 µM | 49 µM | 30.3 µM | 44.6 µM | 39.3 µM | 35.9 µM | 42.7 µM |  |  |  |  |  | 
